Assay results taken from patent US7687508B2, “Cyclic derivatives as modulators of chemokine receptor activity” (Bristol-Myers Squibb Company, priority 2006, dated 2010).

Experiments:
human CCR2 [1] = target: T1, human CCR2 (Homo sapiens, UniProt P41597); test: Human peripheral blood mononuclear cell binding (CCR2 binding), 125I-human MCP-1 tracer; parameters: hPBMCs were isolated from human leukopak (Biological Specialty Inc.); endogenous in cells; host or cells: human peripheral blood mononuclear cells from leukopak (Biological Specialty Inc.); details: hPBMCs, 125I-MCP-1
T1 sequence (P41597 1-360 isoform P41597-2): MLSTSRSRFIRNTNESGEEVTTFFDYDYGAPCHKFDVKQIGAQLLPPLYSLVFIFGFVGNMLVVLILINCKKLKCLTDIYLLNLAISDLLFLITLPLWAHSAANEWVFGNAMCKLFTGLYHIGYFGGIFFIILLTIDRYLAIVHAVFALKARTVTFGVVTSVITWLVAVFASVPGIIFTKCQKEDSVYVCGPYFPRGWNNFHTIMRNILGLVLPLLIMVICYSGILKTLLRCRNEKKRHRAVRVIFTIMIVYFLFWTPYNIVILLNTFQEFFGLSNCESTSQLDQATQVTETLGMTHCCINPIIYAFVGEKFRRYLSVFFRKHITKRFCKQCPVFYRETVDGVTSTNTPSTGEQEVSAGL
Procedure: See also: Yoshimura et al., J. Immunol. 1990, 145, 292. The human CCR2 binding assay was established with human peripheral blood mononuclear cells (hPBMCs) using ^125I-human MCP-1 as the tracer ligand. hPBMCs were isolated from human leukopak (Biological Specialty Inc.) using a standard protocol with Ficoll-Hypaque (Mediatech Cellgro). Isolated hPBMCs were washed and diluted to 1×10^7/ml in binding buffer (RPMI-1640, 0.1% BSA, 20 mM Hepes, pH 7.4). ^125I-MCP-1 (NEN/Perk Elmer) was diluted to 0.45 nM in binding buffer. The compound was diluted in binding buffer at 3-fold the final concentrations used in the binding assay. The binding assay was performed using a 96-well filter plate (Millipore). Total ^125I-MCP-1 binding was assessed as follows: to each reaction of a total volume of 150 μl were added 5×10^5 cells, 0.15 nM […], and compound such that the final concentration ranged from 0 to 100 nM. The plate was incubated at room temperature for 30 minutes followed by three washes with RPMI-1640, 0.1% BSA, 0.4 M NaCl, 20 mM Hepes, pH 7.4 using a vacuum manifold filtration (Millipore). After washing, the plate was air-dried for 60 minutes at room temperature. This was followed by adding 25 μl of Microscint 20 into each well. The plate was sealed and counted on the Trilux for 1 minute. Non-specific binding was determined in the presence of 300 nM cold MCP-1 (PeproTech Inc.). Specific 1-MCP-1 was calculated as the difference between total and non-specific binding. All conditions were tested in duplicate.

human CCR2 [2] = target: T1, human CCR2; test: CCR2 chemotaxis (MCP-1-induced, THP-1 cells); type: cell-based; parameters: hPBMCs were isolated from human leukopak (Biological Specialty Inc.); endogenous in cells; host or cells: human peripheral blood mononuclear cells from leukopak (Biological Specialty Inc.)
Procedure: The human CCR2 chemotaxis assay was conducted with the human monocytic cell line, THP-1. THP-1 cells were first labeled with the fluorescent dye Calcein-AM in phenol red-free, BSA-free RPMI-1640 (pH 7.4) at 37° C. for 30 minutes with gentle mixing every 15 minutes. The labeled cells were then washed and re-suspended at 1×10^5/ml in chemotaxis buffer (phenol red-free RPMI-1640, 0.1% BSA, pH 7.4). The test compound was diluted in chemotaxis buffer such that the final assay concentration ranged from 0.01 nM to 1 μM. […] To perform the assay, an equal volume of test compound dilutions was mixed with an equal volume of labeled THP-1 cells (Mixture 1), and an equal volume of test compound dilutions was mixed with an equal volume of diluted MCP-1 ligand (Mixture 2). Both mixtures were incubated independently at 37° C. for 10 minutes followed by gentle mixing. MCP-1-induced chemotaxis was then measured in a chemotaxis plate (Becton Dickinson) by placing 50 μl of Mixture 1 in the top chamber and 225 μl of Mixture 2 in the bottom chamber. The plate was covered with a lid and incubated at 37° C. for 30 minutes. 30 minutes later, the plate was read on a Cytofluor. All conditions were tested in duplicate. […] The inhibition achieved by graded concentrations of test compound was calculated as a percentage of the compound-free MCP-1 control.

hERG [3] = target: T2, hERG (Homo sapiens, UniProt Q12809); test: hERG flux (Tl+ flux, FLIPR) in HEK293 cells; type: cell-based; details: HEK293 cells stably expressing hERG
T2 construct: expressed in transfected cells
T2 sequence (Q12809 whole entry): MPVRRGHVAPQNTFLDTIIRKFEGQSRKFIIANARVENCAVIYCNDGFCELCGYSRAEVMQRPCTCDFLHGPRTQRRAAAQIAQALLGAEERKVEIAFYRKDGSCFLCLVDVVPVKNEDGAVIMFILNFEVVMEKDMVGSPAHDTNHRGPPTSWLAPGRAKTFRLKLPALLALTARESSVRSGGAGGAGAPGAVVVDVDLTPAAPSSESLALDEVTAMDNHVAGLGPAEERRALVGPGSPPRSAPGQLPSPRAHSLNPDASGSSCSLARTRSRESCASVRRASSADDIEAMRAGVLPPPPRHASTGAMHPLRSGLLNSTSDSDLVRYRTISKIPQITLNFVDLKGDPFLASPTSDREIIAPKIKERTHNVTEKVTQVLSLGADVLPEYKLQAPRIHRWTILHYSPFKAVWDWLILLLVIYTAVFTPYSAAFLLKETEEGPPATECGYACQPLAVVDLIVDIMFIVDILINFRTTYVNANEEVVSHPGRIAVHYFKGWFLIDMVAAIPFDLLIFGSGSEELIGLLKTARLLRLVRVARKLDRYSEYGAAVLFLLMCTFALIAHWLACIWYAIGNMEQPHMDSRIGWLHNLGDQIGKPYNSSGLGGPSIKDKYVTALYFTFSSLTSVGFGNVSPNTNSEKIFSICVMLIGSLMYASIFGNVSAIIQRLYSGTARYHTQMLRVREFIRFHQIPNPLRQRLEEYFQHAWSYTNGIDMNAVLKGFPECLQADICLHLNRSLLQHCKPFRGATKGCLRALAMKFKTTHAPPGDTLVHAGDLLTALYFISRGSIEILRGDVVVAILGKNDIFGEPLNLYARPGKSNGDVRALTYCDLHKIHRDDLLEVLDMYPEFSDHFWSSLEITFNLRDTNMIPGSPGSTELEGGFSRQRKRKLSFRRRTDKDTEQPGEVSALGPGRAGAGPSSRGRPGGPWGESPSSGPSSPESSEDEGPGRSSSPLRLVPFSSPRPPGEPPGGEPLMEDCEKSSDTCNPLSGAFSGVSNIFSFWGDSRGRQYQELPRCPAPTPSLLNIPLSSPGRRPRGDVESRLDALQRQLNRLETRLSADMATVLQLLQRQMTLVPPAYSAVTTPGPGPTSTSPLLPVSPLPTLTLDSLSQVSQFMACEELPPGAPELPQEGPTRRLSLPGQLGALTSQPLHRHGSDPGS
Procedure: HEK293 cells stably-expressing hERG channels were grown (37° C., 5% CO2) in Dulbecco's Modified Eagle's Media supplemented with 10% Sigma fetal bovine serum, non-essential amino acids, 2 mM L-glutamine and 500 μg/ml G418, at incubator.
A 2 mM stock of BTC-AM dye (Molecular Probes, Eugene, Oreg.) was prepared in 100% DMSO and then added 1:1 to 10% (w/v) pluronic acid in DMSO on the day of assay. The dye was then diluted in hERG external EP buffer (140 mM NaCl, 4.0 mM KCl, 1.8 mM CaCl2, 1.0 mM MgCl2, 10 mM HEPES, pH 7.3 and 10 mM glucose; all buffer components obtained from Sigma Chemical). […] Cells are incubated at 21° C. for 45 minutes.
These compounds were then serially-diluted at a 1:2 ratio in DMSO in columns 1-10 and 11-20 of a 384-well plate. Assay-ready plates were generated by stamping 2.5 μl from the DMSO serially diluted plate, which was prepared on the Velocity 11 BioCel. Aqueous plates were created by adding 48 μl of EP buffer and then were diluted 30-45 minutes before the assay was read on the FLIPR. […] Final DMSO concentration in the assay is 1%. Assay-ready aqueous plates were prepared and diluted on a Cybio liquid handler.
Data collection proceeded every second for 48 seconds, and then continued every three seconds for an additional 2 minutes.
The dynamic range of the assay was determined from blanks and totals wells. The totals wells (columns 21 and 22) define maximal hERG activation for the plate (no test compound present), and the blanks wells (columns 23 and 24) define 100% hERG inhibition. […] Raw data points in each sample well were first corrected for cell/signal variation, negative control (blanks) background, and normalized to the positive controls (totals) using the online FLIPR software. Test compound concentration response curves for the hERG Tl^+ flux data were then fit using Excel Fit (ID Business Solutions Limited, Surrey, UK) with a single-site logistic equation, Y=A+((B−A)/1+((C/X)^D))) where A=maximal inhibition. Data were analyzed by fitting maximum amplitudes of change in fluorescence for Tl^+ flux for a given condition of test compound.

[4] = target: human cardiac sodium channel, SCN5A (Nav1.5) (Homo sapiens, UniProt Q14524); test: Sodium channel patch clamp (whole-cell, HEK-293); type: cell-based; details: HEK-293 cells expressing human cardiac sodium channel SCN5A, 30,000 nM, read-out: Na+ channel patch clamp (% inhibition)
Chain of human cardiac sodium channel, SCN5A (Nav1.5) (Q14524 whole entry): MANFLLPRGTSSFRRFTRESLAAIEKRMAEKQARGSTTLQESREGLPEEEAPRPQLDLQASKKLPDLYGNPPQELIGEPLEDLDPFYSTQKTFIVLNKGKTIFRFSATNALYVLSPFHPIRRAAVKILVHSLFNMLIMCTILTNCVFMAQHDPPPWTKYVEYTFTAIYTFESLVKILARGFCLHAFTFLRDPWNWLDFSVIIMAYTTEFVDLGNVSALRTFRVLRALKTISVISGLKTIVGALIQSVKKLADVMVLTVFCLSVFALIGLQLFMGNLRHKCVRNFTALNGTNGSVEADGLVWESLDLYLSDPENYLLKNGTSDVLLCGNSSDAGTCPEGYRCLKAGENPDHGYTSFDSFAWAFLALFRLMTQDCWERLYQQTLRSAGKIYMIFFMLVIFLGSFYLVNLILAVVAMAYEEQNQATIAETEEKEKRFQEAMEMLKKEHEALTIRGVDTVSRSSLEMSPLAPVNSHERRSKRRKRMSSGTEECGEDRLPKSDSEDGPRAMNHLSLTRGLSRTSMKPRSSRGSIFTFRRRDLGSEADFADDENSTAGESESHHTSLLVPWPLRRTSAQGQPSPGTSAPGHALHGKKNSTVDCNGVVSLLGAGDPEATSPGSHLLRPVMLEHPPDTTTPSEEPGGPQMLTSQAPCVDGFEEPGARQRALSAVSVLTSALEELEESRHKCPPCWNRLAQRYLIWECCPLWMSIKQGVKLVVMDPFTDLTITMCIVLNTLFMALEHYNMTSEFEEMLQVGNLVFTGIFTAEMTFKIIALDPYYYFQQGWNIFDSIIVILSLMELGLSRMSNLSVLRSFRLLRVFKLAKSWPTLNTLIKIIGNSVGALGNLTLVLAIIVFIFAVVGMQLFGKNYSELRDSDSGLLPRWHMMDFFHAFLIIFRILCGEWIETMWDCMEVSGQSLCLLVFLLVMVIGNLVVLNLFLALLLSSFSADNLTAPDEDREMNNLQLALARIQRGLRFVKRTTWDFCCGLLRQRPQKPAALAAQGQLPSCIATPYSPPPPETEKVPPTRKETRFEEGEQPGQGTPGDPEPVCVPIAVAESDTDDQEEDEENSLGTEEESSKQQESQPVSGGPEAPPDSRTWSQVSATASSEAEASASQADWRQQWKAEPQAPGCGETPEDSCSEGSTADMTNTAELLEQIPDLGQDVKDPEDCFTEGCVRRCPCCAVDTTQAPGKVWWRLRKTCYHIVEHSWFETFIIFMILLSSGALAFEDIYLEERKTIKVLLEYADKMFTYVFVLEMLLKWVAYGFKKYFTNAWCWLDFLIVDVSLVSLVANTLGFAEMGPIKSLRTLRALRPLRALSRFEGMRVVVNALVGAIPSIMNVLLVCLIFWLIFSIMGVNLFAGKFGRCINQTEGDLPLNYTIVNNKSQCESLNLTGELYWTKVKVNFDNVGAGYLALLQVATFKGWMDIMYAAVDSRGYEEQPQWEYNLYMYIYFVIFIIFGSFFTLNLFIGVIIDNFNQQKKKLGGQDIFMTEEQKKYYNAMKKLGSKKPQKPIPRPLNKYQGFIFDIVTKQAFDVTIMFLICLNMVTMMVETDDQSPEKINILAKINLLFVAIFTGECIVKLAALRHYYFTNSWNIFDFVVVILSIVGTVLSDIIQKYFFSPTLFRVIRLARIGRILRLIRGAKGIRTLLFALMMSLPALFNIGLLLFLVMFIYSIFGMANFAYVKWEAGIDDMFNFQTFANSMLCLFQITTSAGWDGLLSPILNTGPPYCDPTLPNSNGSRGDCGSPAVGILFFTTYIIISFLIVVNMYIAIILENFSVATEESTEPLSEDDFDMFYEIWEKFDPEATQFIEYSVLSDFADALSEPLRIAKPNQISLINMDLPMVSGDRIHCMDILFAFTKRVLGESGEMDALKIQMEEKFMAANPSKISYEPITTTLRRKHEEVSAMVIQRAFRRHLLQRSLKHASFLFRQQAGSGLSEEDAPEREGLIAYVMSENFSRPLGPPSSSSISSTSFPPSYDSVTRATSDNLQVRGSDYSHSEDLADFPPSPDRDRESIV
Procedure: The compound was tested at a protein-free aqueous buffer. For determining steady state inhibition, sodium currents were elicited every 5 seconds using the following voltage protocol: cells were held at a potential of −90 mV and stepped to −20 mV for 60 ms. Effects were calculated by measuring inhibition of peak current during the test pulse to −20 mV. Rate-dependence of inhibition was assessed by stimulation at frequencies of 1 Hz and 4 Hz.

[5] = Parallel Artificial Membrane Permeability Assay (PAMPA); type: in vitro ADME; details: apical and basolateral pH 7.4
Procedure: All experiments are conducted in triplicate determinations.

hERG [6] = target: T2, hERG; test: hERG patch clamp (whole-cell, HEK-293); type: cell-based; details: for inhibition at 10000 nM: pH 7.4, 10,000 nM; for inhibition at 30000 nM: pH 7.4, 30,000 nM
human CCR2 [7] = target: T1, human CCR2; test: THP-1 binding (CCR2, 125I-human MCP-1 tracer); parameters: THP-1 human monocytic leukemic cell line, which expresses endogenous CCR2; endogenous in cells; host or cells: THP-1 human monocytic leukemia cells; details: metabolite examples; THP-1 cells, 125I-MCP-1
Procedure: The human CCR2 binding assay was also established with the THP-1 human monocytic leukemic cell line, which expresses endogenous CCR2, using 125I-human MCP-1 as the tracer ligand. Radioligand competition binding assays were used for assessment of binding affinity of test compounds to the CCR2 receptor. For radioligand competition studies, 100 μl containing 2.5×10^5 THP-1 cells/well (in assay buffer containing 50 mM HEPES, pH7.4, 5 mM MgCl2, 1 mM CaCl2 and 0.5% BSA) were added to 96-well assay plates containing test compound in 3-fold serial dilution, with final concentrations ranging from […]. Subsequently, 50 μl ^125I-MCP-1 radioligand at a final concentration of 0.2 nM in assay buffer were added to the reaction. After a 90 minute incubation period at room temperature, the binding reaction was terminated by harvesting on GF/B filter plates (PerkinElmer Cat. No. 6005177) followed by washing with ice-cold wash buffer (50 mM HEPES, pH 7.4, 0.1% BSA, 0.5 M NaCl) to remove unbound ligand. After washing, the plate was dried for 45 minutes at 60° C. followed by addition of 40 μl MicroScint 20 scintillation fluid, sealed and analyzed by the Packard TopCount reader. […] The competition data was plotted as a percentage inhibition of radioligand specific bound in the absence of test compound (percent of total signal). After correcting for non-specific binding, IC50 values were determined.

[8] = Single-dose pharmacokinetics in rats; type: in vivo; details: male, Sprague-Dawley, plasma, rat, dose per compound (mg/kg)
Procedure: (1500-2000×g) to obtain plasma. […] Plasma samples, obtained by centrifugation at 4° C.

[9] = Single-dose pharmacokinetics in monkeys; type: in vivo; details: male, cynomolgus monkey, plasma, dose per compound (mg/kg)
Excerpt: (1500-2000×g) to obtain plasma.

[10] = figure in parentheses in the cell not copied (count of determinations), read-out: CCR2 Binding IC50
[11] = metabolite examples, read-out: PBMC Binding IC50

SMILES	IC50 (human CCR2 [1]; [10])	IC50 (human CCR2 [2])	IC50 (hERG [3])	inhibition at 30000 nM [4]	Papp at 4 h, 100 µM [5]	inhibition at 10000 nM (hERG [6])	inhibition at 30000 nM (hERG [6])	IC50 (human CCR2 [7])	IC50 (human CCR2 [1]; [11])	also measured
CC(=O)N[C@@H]1C[C@H](N(C)C(C)C)CC[C@@H]1N1CC[C@H](Nc2ncnc3cnc(C(C)(C)C)nc23)C1=O [Example 1, N-((1R,2S,5R)-2-((3S)-3-((6-tert-butylpyrimido[5,4-d]pyrimidin-4-yl)amino)-2-oxo-1-pyrrolidinyl)-5-(isopropyl(methyl)amino)cyclohexyl)acetamide]	0.00334 ± 0.00032 µM	0.00385 ± 0.00036 µM	> 80 µM	13%	18.7 ×10⁻⁶ cm/s	8%	17%			
CC(=O)N[C@@H]1C[C@H](NC(C)C)CC[C@@H]1N1CC[C@H](Nc2nc[n+]([O-])c3ccc(C(F)(F)F)cc23)C1=O [Example 6, N-((1R,2S,5R)-5-(isopropylamino)-2-((3S)-3-((1-oxido-6-(trifluoromethyl)-4-quinazolinyl)amino)-2-oxo-1-pyrrolidinyl)cyclohexyl)acetamide]								0.139 µM		
CC(=O)N[C@@H]1C[C@H](N(C)C(C)C)CC[C@@H]1N1CC[C@H](Nc2nc[n+]([O-])c3ccc(C(F)(F)F)cc23)C1=O [Example 5, N-((1R,2S,5R)-5-(isopropyl(methyl)amino)-2-((3S)-3-((1-oxido-6-(trifluoromethyl)-4-quinazolinyl)amino)-2-oxo-1-pyrrolidinyl)cyclohexyl)acetamide]								0.0213 µM	0.0275 ± 0.0014 µM	
CC(=O)N[C@@H]1C[C@H](NC(C)(C)C)CC[C@@H]1N1CC[C@H](Nc2nc[n+]([O-])c3ccc(C(F)(F)F)cc23)C1=O [Example 14, N-((1R,2S,5R)-5-(tert-butylamino)-2-((3S)-3-((1-oxido-6-(trifluoromethyl)-4-quinazolinyl)amino)-2-oxo-1-pyrrolidinyl)cyclohexyl)acetamide]								0.0199 µM	0.0149 ± 0.0052 µM	
CCC(=O)N[C@@H]1C[C@H](N)CC[C@@H]1N1CC[C@H](Nc2ncnc3ccc(C(F)(F)F)cc23)C1=O [Example 10, N-((1R,2S,5R)-5-amino-2-((3S)-2-oxo-3-((6-(trifluoromethyl)-4-quinazolinyl)amino)-1-pyrrolidinyl)cyclohexyl)propanamide]	0.00518 ± 0.00198 µM	0.0016 ± 0.00042 µM	> 80 µM	35%	22.8 ×10⁻⁶ cm/s		33%			clearance ([8]; IV): 45 mL/min/kg; AUC ([8]; PO): 4.23 µM·h; bioavailability ([8]; oral bioavailability): 57%; clearance ([9]; IV): 21 mL/min/kg; AUC ([9]; PO): 1.08 µM·h; bioavailability ([9]; oral bioavailability): 67%
CC(C)N(C)[C@@H]1CC[C@H](N2CC[C@H](Nc3ncnc4ccc(C(F)(F)F)cc34)C2=O)[C@H](NC=O)C1 [Example 7, N-((1R,2S,5R)-5-(isopropyl(methyl)amino)-2-((S)-2-oxo-3-(6-(trifluoromethyl)quinazolin-4-ylamino)pyrrolidin-1-yl)cyclohexyl)formamide]	0.00172 ± 0.00054 µM	0.00285 µM	> 80 µM	10%	32.6 ± 22.1 ×10⁻⁶ cm/s	12%	29%			
